Source: ChEMBL document CHEMBL4184144, “Design, synthesis and biological evaluation of fucose-truncated monosaccharide analogues of ipomoeassin F” (Bioorg Med Chem Lett, 2017)
pIC50: −log10 of the molar value. The source made the active and inactive calls. No cut-off for these calls is given here.

What was measured:
Assay type in all cases: functional, cell-based
[1] = test system: MCF7; test: Antiproliferative activity against human MCF7 cells at 10 uM after 72 hrs by MTT assay
[2] = test system: MDA-MB-231; test: Antiproliferative activity against human MDA-MB-231 cells at 10 uM after 72 hrs by alamarBlue assay
[3] = test system: MCF7; test: Antiproliferative activity against human MCF7 cells after 72 hrs by MTT assay; conditions: MCF7, 72 h
[4] = test system: MDA-MB-231; test: Antiproliferative activity against human MDA-MB-231 cells after 72 hrs by alamarBlue assay; conditions: MDA-MB-231, 72 h
[5] = test system: HeLa; test: Antiproliferative activity against human HeLa cells
[6] = test system: U-937; test: Antiproliferative activity against human U937 cells
[7] = test system: Jurkat; test: Antiproliferative activity against human Jurkat cells

Row | pIC50 [3] | pIC50 [4] | pIC50 [5] | pIC50 [6] | pIC50 [7] | Compound | Activity [1] | Activity [2]
1 | – | – | – | – | – | C/C=C(\C)C(=O)O[C@H]1[C@@H]2O[C@@H](CCCCC)CCCCCCC(=O)CCC(=O)OC[C@@H](O2)[C@@H](O)[C@@H]1OC(=O)/C=C/c1ccccc1 | inactive | inactive
2 | – | – | – | – | – | C/C=C(\C)C(=O)O[C@@H]1[C@@H](O)[C@@H]2O[C@@H](CCCCC)CCCCCCC(=O)CCC(=O)OC[C@@H](O2)[C@H]1OC(=O)/C=C/c1ccccc1 | inactive | inactive
3 | – | – | – | – | – | C/C=C(\C)C(=O)O[C@@H]1[C@@H](O)[C@@H]2OCCO[C@@H](CCCCC)CCCCCCC(=O)CCC(=O)OC[C@@H](O2)[C@H]1OC(=O)/C=C/c1ccccc1 | inactive | inactive
4 | 7.06 | 6.88 | 6.88 | 7.14 | 6.86 | C/C=C(\C)C(=O)O[C@@H]1[C@@H](O)[C@@H]2O[C@H]3[C@H](O[C@@H](CCCCC)CCCCCCC(=O)CCC(=O)OC[C@@H](O2)[C@H]1OC(=O)/C=C/c1ccccc1)O[C@H](C)[C@H](O)[C@@H]3O | – | –
5 | 6.67 | 7.78 | 6.86 | 7.10 | 7.08 | C/C=C(\C)C(=O)O[C@@H]1[C@@H](O)[C@@H]2O[C@H]3[C@H](O[C@@H](CCCCC)CCCCCCC(=O)CCC(=O)OC[C@@H](O2)[C@H]1OC(=O)/C=C/c1ccccc1)O[C@H](C)[C@H](OC(C)=O)[C@@H]3OC(C)=O | – | –

Row | Compound | pIC50 [3] | pIC50 [4] | pIC50 [5] | pIC50 [6] | pIC50 [7] | Activity [1] | Activity [2]
6 | C/C=C(\C)C(=O)O[C@@H]1[C@@H](O)[C@@H]2O[C@H]3[C@H](O[C@@H](CCCCC)CCCCCCC(=O)CCC(=O)OC[C@@H](O2)[C@H]1OC(=O)/C=C/c1ccccc1)O[C@H](C)[C@H](OC(C)=O)[C@@H]3O | 7.36 | 8.19 | 7.79 | 8.27 | 8.21 | Active | Active
